Experimental data from patent publication US10168342B2, “Lipid probes and uses thereof” (THE SCRIPPS RESEARCH INSTITUTE, priority 2015, dated 2019).

Tests used:
Test in all cases: isoTOP-ABPP mapping of AEA-DA-modified peptides in Neuro2a cells
Assay type in all cases: cell-based
[1] = target: T1, AEA-DA-modified peptides in Neuro2a cells (Mus musculus, UniProt O35737); conditions: AEA-DA-modified peptide HNRNPH 1 O35737 50-69, SEQ ID NO 49; probe 100 μM, 12 replicates
T1 construct: endogenous in cells; host or cells: Neuro2a

[2] = target: T2, AEA-DA-modified peptides in Neuro2a cells (Mus musculus, UniProt O55022); conditions: probe 100 μM, 12 replicates
T2 construct: endogenous in cells; host or cells: Neuro2a

[3] = target: T3, AEA-DA-modified peptides in Neuro2a cells (Mus musculus, UniProt P21619); conditions: AEA-DA-modified peptide LMNB2 P21619 137-160, SEQ ID NO 57; probe 100 μM, 12 replicates
T3 construct: endogenous in cells; host or cells: Neuro2a

[4] = target: T4, AEA-DA-modified peptides in Neuro2a cells (Mus musculus, UniProt P47802); conditions: AEA-DA-modified peptide MTX1 P47802 89-104, SEQ ID NO 63; probe 100 μM, 12 replicates
T4 construct: endogenous in cells; host or cells: Neuro2a

[5] = target: T5, AEA-DA-modified peptides in Neuro2a cells (Mus musculus, UniProt P57776); conditions: AEA-DA-modified peptide EEF1D P57776 25-39, SEQ ID NO 35; probe 100 μM, 12 replicates
T5 construct: endogenous in cells; host or cells: Neuro2a

[6] = target: T6, AEA-DA-modified peptides in Neuro2a cells (Mus musculus, UniProt Q8BJ03); conditions: AEA-DA-modified peptide COX15 Q8BJ03 317-331, SEQ ID NO 25; probe 100 μM, 12 replicates
T6 construct: endogenous in cells; host or cells: Neuro2a

[7] = target: T7, AEA-DA-modified peptides in Neuro2a cells (Mus musculus, UniProt Q8CFE6); conditions: AEA-DA-modified peptide SLC38A2 Q8CFE6 171-179, SEQ ID NO 105; probe 100 μM, 12 replicates
T7 construct: endogenous in cells; host or cells: Neuro2a

[8] = target: T8, AEA-DA-modified peptides in Neuro2a cells (Mus musculus, UniProt Q99K48); conditions: AEA-DA-modified peptide NONO Q99K48 122-138, SEQ ID NO 69; probe 100 μM, 12 replicates
T8 construct: endogenous in cells; host or cells: Neuro2a

[9] = target: T9, AEA-DA-modified peptides in Neuro2a cells (Mus musculus, UniProt Q9CPU0); conditions: AEA-DA-modified peptide GLO1 Q9CPU0 160-180, SEQ ID NO 42; probe 100 μM, 12 replicates
T9 construct: endogenous in cells; host or cells: Neuro2a

[10] = target: T10, AEA-DA-modified peptides in Neuro2a cells (Mus musculus, UniProt Q9D8V0); conditions: AEA-DA-modified peptide HM13 Q9D8V0 62-74, SEQ ID NO 48; probe 100 μM, 12 replicates
T10 construct: endogenous in cells; host or cells: Neuro2a

[11] = target: T11, AEA-DA-modified peptides in Neuro2a cells (Mus musculus, UniProt Q9JKF7); conditions: AEA-DA-modified peptide MRPL39 Q9JKF7 154-166, SEQ ID NO 61; probe 100 μM, 12 replicates
T11 construct: endogenous in cells; host or cells: Neuro2a

[12] = target: T12, AEA-DA-modified peptides in Neuro2a cells (Mus musculus, UniProt Q9Z2R6); conditions: AEA-DA-modified peptide UNC119 Q9Z2R6 131-140, SEQ ID NO 117; probe 100 μM, 12 replicates
T12 construct: endogenous in cells; host or cells: Neuro2a

T2 sequence (O55022 whole entry): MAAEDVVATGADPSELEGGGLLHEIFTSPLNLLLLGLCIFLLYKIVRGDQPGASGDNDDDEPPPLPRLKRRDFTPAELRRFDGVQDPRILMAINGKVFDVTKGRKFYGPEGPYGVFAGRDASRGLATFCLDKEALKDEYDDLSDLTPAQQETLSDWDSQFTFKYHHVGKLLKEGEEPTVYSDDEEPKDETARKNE
T5 sequence (P57776 whole entry): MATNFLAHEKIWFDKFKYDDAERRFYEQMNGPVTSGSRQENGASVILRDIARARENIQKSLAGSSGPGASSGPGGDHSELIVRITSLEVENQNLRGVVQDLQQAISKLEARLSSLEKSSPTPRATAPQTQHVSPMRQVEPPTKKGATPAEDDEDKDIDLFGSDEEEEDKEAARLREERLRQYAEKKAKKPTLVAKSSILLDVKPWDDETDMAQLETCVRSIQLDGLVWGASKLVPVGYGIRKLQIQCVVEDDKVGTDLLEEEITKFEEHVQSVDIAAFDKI
T4 sequence (P47802 whole entry): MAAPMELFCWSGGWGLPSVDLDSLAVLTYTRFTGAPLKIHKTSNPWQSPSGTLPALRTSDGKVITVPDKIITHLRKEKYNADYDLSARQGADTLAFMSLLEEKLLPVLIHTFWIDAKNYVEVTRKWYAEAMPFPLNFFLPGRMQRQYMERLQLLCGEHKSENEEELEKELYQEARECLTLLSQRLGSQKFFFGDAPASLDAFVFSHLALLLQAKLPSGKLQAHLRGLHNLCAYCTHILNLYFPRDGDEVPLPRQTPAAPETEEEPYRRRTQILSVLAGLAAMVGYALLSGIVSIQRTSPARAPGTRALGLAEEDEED
T6 sequence (Q8BJ03 whole entry): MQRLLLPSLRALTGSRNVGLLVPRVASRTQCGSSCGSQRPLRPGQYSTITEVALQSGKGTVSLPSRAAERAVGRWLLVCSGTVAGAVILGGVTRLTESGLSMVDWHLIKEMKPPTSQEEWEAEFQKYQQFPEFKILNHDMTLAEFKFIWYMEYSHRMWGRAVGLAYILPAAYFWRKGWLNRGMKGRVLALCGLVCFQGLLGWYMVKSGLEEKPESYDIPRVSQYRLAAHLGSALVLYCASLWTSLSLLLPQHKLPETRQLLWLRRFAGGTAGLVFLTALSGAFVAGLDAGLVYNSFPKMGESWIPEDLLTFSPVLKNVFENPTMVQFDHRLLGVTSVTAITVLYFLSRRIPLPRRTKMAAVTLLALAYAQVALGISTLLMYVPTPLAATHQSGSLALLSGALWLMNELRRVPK
T7 sequence (Q8CFE6 whole entry): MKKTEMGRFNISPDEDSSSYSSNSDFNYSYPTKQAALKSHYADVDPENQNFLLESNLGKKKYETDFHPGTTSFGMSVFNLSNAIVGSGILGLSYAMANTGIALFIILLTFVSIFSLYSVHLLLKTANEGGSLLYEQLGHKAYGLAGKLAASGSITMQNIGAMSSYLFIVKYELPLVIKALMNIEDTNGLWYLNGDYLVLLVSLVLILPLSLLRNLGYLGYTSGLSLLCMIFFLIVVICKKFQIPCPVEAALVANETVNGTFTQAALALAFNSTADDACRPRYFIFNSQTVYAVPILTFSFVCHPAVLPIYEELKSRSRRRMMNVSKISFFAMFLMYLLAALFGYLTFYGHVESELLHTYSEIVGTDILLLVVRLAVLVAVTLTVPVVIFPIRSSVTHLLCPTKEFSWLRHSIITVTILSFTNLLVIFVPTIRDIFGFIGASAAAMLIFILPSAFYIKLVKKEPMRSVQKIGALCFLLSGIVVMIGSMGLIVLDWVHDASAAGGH
T3 sequence (P21619 whole entry): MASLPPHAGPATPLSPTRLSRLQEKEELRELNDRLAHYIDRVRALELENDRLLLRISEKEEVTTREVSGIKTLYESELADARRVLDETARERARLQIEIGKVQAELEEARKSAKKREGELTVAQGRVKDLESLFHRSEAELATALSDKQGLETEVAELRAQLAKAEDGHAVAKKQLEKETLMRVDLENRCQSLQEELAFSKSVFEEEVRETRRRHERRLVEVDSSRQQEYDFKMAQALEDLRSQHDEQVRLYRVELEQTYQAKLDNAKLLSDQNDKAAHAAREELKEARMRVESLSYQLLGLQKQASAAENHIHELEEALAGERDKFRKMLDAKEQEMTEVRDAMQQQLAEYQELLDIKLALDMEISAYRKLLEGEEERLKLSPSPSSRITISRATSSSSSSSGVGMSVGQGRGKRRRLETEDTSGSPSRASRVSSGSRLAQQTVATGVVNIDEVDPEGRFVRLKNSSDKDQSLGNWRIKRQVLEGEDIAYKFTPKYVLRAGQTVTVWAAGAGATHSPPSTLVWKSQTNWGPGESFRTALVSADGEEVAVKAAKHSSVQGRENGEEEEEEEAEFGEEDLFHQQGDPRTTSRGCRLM
T1 sequence (O35737 whole entry): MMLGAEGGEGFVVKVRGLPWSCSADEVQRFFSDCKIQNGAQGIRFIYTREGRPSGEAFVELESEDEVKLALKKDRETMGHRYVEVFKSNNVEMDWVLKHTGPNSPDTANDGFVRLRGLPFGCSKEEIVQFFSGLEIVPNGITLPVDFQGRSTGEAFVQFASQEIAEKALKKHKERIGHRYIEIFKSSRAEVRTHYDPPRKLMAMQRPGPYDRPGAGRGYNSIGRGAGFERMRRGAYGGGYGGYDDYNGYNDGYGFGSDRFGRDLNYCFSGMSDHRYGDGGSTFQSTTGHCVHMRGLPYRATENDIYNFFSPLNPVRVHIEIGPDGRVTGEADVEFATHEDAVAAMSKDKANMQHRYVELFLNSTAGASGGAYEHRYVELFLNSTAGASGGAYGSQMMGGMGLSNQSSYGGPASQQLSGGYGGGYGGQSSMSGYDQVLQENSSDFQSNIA
T10 sequence (Q9D8V0 whole entry): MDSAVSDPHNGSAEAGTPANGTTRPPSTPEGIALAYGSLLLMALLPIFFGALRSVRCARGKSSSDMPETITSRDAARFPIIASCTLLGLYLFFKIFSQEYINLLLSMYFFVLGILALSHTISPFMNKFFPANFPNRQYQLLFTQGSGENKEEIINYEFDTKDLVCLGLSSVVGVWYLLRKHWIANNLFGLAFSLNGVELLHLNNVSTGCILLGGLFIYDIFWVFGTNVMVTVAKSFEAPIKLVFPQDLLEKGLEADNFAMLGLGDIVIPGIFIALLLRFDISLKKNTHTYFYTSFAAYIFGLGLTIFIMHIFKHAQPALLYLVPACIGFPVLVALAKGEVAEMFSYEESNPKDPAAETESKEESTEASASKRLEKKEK
T8 sequence (Q99K48 whole entry): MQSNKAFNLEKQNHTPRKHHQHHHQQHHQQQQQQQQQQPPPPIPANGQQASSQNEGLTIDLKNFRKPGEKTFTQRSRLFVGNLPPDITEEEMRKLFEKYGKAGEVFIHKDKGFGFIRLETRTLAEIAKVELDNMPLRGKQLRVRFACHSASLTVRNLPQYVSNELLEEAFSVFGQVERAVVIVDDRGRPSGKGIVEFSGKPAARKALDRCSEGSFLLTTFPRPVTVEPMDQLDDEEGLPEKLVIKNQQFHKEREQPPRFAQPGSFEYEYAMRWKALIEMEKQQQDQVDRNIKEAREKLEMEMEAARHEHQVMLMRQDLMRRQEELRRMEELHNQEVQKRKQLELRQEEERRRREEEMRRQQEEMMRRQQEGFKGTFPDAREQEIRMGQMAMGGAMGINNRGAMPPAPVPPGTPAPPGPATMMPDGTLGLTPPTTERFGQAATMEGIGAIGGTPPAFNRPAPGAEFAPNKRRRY
T9 sequence (Q9CPU0 whole entry): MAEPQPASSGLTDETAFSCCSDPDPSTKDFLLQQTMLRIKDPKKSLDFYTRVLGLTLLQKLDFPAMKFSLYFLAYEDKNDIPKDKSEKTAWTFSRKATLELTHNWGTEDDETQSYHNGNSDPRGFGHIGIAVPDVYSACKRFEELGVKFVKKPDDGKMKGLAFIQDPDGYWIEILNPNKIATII

C#CCCCC1(CC/C=C\C/C=C\C/C=C\CCCC(=O)NCCO)N=N1 [AEA-DA, (5Z,8Z,11Z)-N-(2-hydroxyethyl)-14-(3-(pent-4-yn-1-yl)-3H-diazirin-3-yl)tetradeca-5,8,11-trienamide]
Times observed [1]: 9 | Times observed ([2]; AEA-DA-modified peptide PGRMC1 O55022 48-68, SEQ ID NO 82): 2 | Times observed ([2]; AEA-DA-modified peptide PGRMC1 O55022 106-120, SEQ ID NO 81): 12 | Times observed [3]: 5 | Times observed [4]: 2 | Times observed [5]: 10 | Times observed [6]: 2 | Times observed [7]: 4 | Times observed [8]: 3 | Times observed [9]: 2 | Times observed [10]: 12 | Times observed [11]: 4 | Times observed [12]: 3
